Laboratory results as given in patent US20140235630A1, “COMPOSITIONS AND METHODS FOR THE TREATMENT OF PROLIFERATIVE DISEASES” (Beth Israel Deaconess Medical Center, Inc., priority 2011, published 2014).

Assays:
HCC1937 and SUM149 cells = test: Immunoblotting of BRCA1-mutant breast cancer cell lines treated with drugs; type: cell-based, human; details: for overall poly-ADP-ribosylation (PAR): Compound B 10 μM; for activation status of EGFR/MAPK pathways: 72 hours treatment, immunoblot
Source text: The PI3K inhibitor 5-(2,6-dimorpholinopyrimidin-4-yl)-4-(trifluoromethyl)pyridin-2-amine (Compound A) was obtained through a Material Transfer Agreement with Novartis Pharmaceuticals. Olaparib (Compound B) was purchased from LC Laboratories (Woburn, Mass.) and KU-55933 was purchased from Selleck Chemicals (Houston, Tex.). BRCA1-mutant human breast cancer cell line HCC1937 was from American Type Culture Collection; # CRL-2336, and maintained in DMEM/10% FBS and SUM149 was from Division of Signal Transduction, BIDMC, maintained in Ham's F-12 with 5% fetal bovine serum (FBS), 5 μg/ml insulin, 2 μg/ml hydrocortisone, 5 μg/ml gentamicin and 2.5 μg/ml fungizone. Cell lines were authenticated by immunoblotting for BRCA1 and PTEN and tested for absence of mycoplasma.
Cells were treated with mock, 5-(2,6-dimorpholinopyrimidin-4-yl)-4-(trifluoromethyl)pyridin-2-amine (Compound A), 4-[[3-[4-(cyclopropanecarbonyl)piperazine-1-carbonyl]-4-fluorophenyl]methyl]-2H-phthalazin-1-one (Compound B), KU-55933, or the combination and lysed in cell lysis buffer (9803, Cell Signaling) as per the manufacturer's instructions. Immunoblots were performed using the Nupage System (Invitrogen). The protein concentration was determined using Bradford reagent (Biorad). A total of 20 μg of protein were loaded, except for PAR, Phospho ATM and Phospho DNA-PK/PRKDC western blots, where 40 μg were loaded. Tumor tissue lysates were prepared similarly with the exception of tissue homogenization by using an electric homogenizer for 30 secs after addition of the lysis buffer. Primary antibodies used for western blotting were total AKT (9272), Cleaved Caspace 3 (9661), total ERK (4695), Phospho AKT Ser473 (4058), Phospho ERK Thr202/Tyr204 (9106), Phospho-Histone H2AX Ser139 (2577), PTEN (9559) from Cell Signaling. Phospho ATM Ser1981 (2152-1), Phospho DNA-PK/PRKDC Ser2056 (3892-1) from Epitomics, Inc. CD31 (ab28364), Actin (ab6276), INPP4B (ab81269) from Abcam; pADPr (sc56198) from Santacruz Biotechnology; and Ki-67 (RM-9106) was purchased from Thermo Scientific.

[1] = test system: spontaneous tumors of MMTV-CreBRCA1^f/fp53+/− mice; test: Tumor growth (relative tumor volume, doubling time) in spontaneous BRCA1-related breast cancer model; type: in vivo, mouse; details: for tumor doubling time: Compound A 50 or 30 mg/kg/day gavage (pooled), Compound B 50 mg/kg/day i.p., vehicle 5 days; for prolongation of tumor doubling time versus vehicle control: versus 5 days with vehicle
Method: FIGS. 6A-6D are graphs showing the synergistic effect of a PI3K inhibitor (Compound A) and PARP inhibitor (Compound B) in treating breast cancer. Trendlines (bold lines) were calculated using all data points to determine best fit and show the relative tumor growth in the vehicle control cohort (as in FIG. 6A) and in the Compound A cohort (as in FIG. 6B). The functions of the best-fit curves were used to determine tumor doubling times for all three treatment modalities and controls. Tumor-bearing MMTV-CreBRCA1^f/fp53+/− were treated with either vehicle control (6A); Compound A (6B, 50 mg/kg/day (n=11) or 30 mg/kg/day (n=10)); Compound B (6C, 50 mg/kg/day (n=8)); or the combination of Compound A and Compound B (6D, Compound A 50 mg/kg/day+Compound B 50 mg/kg/day (n=8) or Compound A 30 mg/kg/day+Compound B 50 mg/kg/day (n=7)) and tumor volumes were measured every 2-3 days using calipers.
FIG. 7 is a graph showing the relative tumor volume (RTV) over time of tumor-bearing MMTV-CreBRCA1^f/fp53+/− mice treated with a control vehicle (n=3), PI3Kα-specific inhibitor Compound C alone (n=7), or a combination of pan-PARP inhibitor Compound B and PI3Kα-specific inhibitor Compound C (n=6). The data of the control and Compound C alone treatment groups are represented by trendlines calculated using all data points to determine best fit. The data of the combination treatment group are individually represented.
(§1) All animal experiments were conducted in accordance with IACUC-approved protocols at Beth Israel Deaconess Medical Center, Boston, and at the University of Vall d'Hebron, Barcelona, Spain. Female MMTV-CreBRCA1^f/fp53+/− mice were obtained by breeding BRCA1 conditional knockout mice from the NIH repository (01XC8, strain C57BL/6) (Xu et al. Nat. Genet., 22: 37-43, 1999); with MMTV-Cre (Jackson Laboratory B6129-TgN(MMTV-Cre)4Mam) (Wagner et al. Nucleic Acids Res., 25: 4323-4330, 1997) and p53 knockout (Taconic Farms, P53N12-M, C57BL/6) (Donehower et al. Nature, 356: 215-221, 1992). At the time of the study, mice had been inbred for 4 years (>7 generations). The floxed or wild type status of Brca1, the presence of the MMTV-Cre transgene and the p53 heterozygosity were determined by PCR. Mice were examined for the occurrence of tumors twice weekly. When tumormetrics were performed, the length and width of the tumor was determined using calipers, and the tumor volume was determined (width^2×length/2). Tumor volume was used as a measure of growth and was recorded as ratio to tumor volume at diagnosis. Tumor doubling times were calculated using the functions of the best fit curves for all data points in each treatment modality. […]

phospho-AKT (S473) = test: AKT phosphorylation in tumor tissue (immunohistochemistry / immunoblot); type: in vivo, mouse; details: for AKT phosphorylation in tumor tissue lysates: immunoblot, tumor taken 2-3 hours after last dose, Compound A 30 mg/kg/day, Compound B 50 mg/kg/day
Method: as §1, with “modality. 5-(2,6-dimorpholinopyrimidin-4-yl)-4-(trifluoromethyl)pyridin-2-amine (Compound A) was resuspended in 5% Methylcellulose solution (Fluka) and administered via oral gavage at 50 mg/kg/day or 30 mg/kg/day.” for “modality.”
Cells were treated with mock, 5-(2,6-dimorpholinopyrimidin-4-yl)-4-(trifluoromethyl)pyridin-2-amine (Compound A), 4-[[3-[4-(cyclopropanecarbonyl)piperazine-1-carbonyl]-4-fluorophenyl]methyl]-2H-phthalazin-1-one (Compound B), KU-55933, or the combination and lysed in cell lysis buffer (9803, Cell Signaling) as per the manufacturer's instructions. […] The protein concentration was determined using Bradford reagent (Biorad). […]

| SMILES | cleaved caspase 3 (CC3), apoptosis marker (HCC1937 and SUM149 cells; 24 hours) | overall poly-ADP-ribosylation (PAR) (HCC1937 and SUM149 cells; 24 hours, Compound A 1 μM) | H2AX phosphorylation on Serine 139 (γH2AX) (HCC1937 and SUM149 cells; 24 hours, Compound A 1 μM, Compound B 10 μM in combination) | activation status of EGFR/MAPK pathways (HCC1937 and SUM149 cells) | phosphorylation of AKT (HCC1937 and SUM149 cells; increasing concentrations, 24 hours) | tumor doubling time [1] [days] | prolongation of tumor doubling time versus vehicle control [1] | phosphorylation of AKT at Ser-473 in tumors (phospho-AKT (S473); IHC of biopsies before and after two weeks of treatment) | AKT phosphorylation in tumor tissue lysates (phospho-AKT (S473)) |
| --- | --- | --- | --- | --- | --- | --- | --- | --- | --- |
| Nc1cc(C(F)(F)F)c(-c2cc(N3CCOCC3)nc(N3CCOCC3)n2)cn1 [Compound A, 5-(2,6-dimorpholinopyrimidin-4-yl)-4-(trifluoromethyl)pyridin-2-amine] | remained negative | dose dependent increase | increased with increasing concentrations | induced a compensatory activation | diminishing phosphorylation | 26 | 5 fold | strongly decreased | potently reduced |
| O=C(c1cc(Cc2n[nH]c(=O)c3ccccc23)ccc1F)N1CCN(C(=O)C2CC2)CC1 [Compound B, 4-[[3-[4-(cyclopropanecarbonyl)piperazine-1-carbonyl]-4-fluorophenyl]methyl]-2H-phthalazin-1-one, reference compound] | – | completely blocked | – | did not have a discernible effect | – | 16 | three-fold | – | induction of AKT phosphorylation |
